According to publication PMC12505664, “Enflicoxib for the long-term management of canine osteoarthritis—External validation of a population pharmacokinetic model in dogs with osteoarthritis” (Frontiers in Veterinary Science, 2025):
“And” between values parts separate entries of the source, which are not always exact repeats. Equal values may be shown once. Read-outs that look alike come from different tables or passages of the source.

Experiments:
[1] = parameters: method as in PMID 34160092; details: cited from earlier work
[2] = Plasma levels of enflicoxib and pyrazol metabolite in the 6-month field clinical study (HPLC-MS/MS); type: in vivo, client-owned dogs with OA; details: for Mean plasma level: oral 8 mg/kg then 4 mg/kg weekly
Protocol: A prospective, multisite, blinded, randomized, placebo-controlled, parallel-group field study was performed in accordance with Good Clinical Practice standards ([16]). The study aimed to confirm the safety and efficacy of enflicoxib treatment of pain and inflammation associated with naturally occurring canine OA in dogs of any breed and sex treated for 6 months. The protocol was approved by the regulatory authorities of both Portugal and Hungary. Written informed consent was obtained from all dog owners prior to enrolment of their dogs. Dogs remained under the care of their owners at home throughout the study.
Before enrolment, all dogs underwent a physical examination, and blood and urine samples were taken. After enrollment, dogs were randomized in a predefined enflicoxib:placebo ratio of 3:1. Enflicoxib was dosed orally at weekly intervals, with an initial dose of 8 mg/kg, followed by once-a-week maintenance doses of 4 mg/kg for a total of 26 weeks. Dogs in the enflicoxib group received Daxocox® tablets (Ecuphar/Animalcare group), while dogs in the placebo group received the same formulation without the active ingredient under the same posology (number of tablets and dosing interval). […] No positive control was included due to difficulties in maintaining blinding with products under different posology during the entire follow-up period.
Two blood samples for popPK analysis were collected from all animals enrolled in the study one on day 44(±2 days)/1.5 months, (similar to the last sample taken in the previous clinical studies), after clinical assessment of pain and lameness and prior to treatment administration and another one at the end of the study on day 189/6 months (±2 days), or individual premature study termination day. Day 189 corresponds to the trough concentration after the 27th weekly administration (PK sample taken at the end of the weekly dosing interval). Meanwhile, day 44 corresponds to a PK sample obtained 2 days after the 7th weekly administration. The veterinary practices had the necessary resources and adequate freezing equipment for the long-term storage of plasma samples. Blood samples were collected into potassium-3-ethylenediaminetetraacetic acid (K3EDTA) labeled tubes, which were immediately centrifuged at ~2,500g for 10 min (at +4 °C whenever possible) to obtain plasma. Once received, plasma was transferred into two labeled propylene tubes (aliquots 1 and 2). Each plasma aliquot was stored frozen at a nominal temperature of −20 (±2) °C until shipment to the Laboratory of analysis Welab Barcelona (Parc Científic de Barcelona, C/Baldiri Reixac 4-12, 08028, Barcelona). The maximum storage time for the samples was 376 days at nominally −20 °C/−80 °C. Considering the long-term stability of enflicoxib and its metabolite in dog plasma samples stored at −20 °C, which spans a minimum of 402 days, the stability of the study samples was guaranteed for the entire duration of the study. Samples were analyzed without information on the treatment allocation (laboratory-blinded study).
Enflicoxib and pyrazol metabolite plasma levels were measured by a previously fully validated high-performance liquid chromatography (HPLC)-method coupled with tandem mass spectrometry (MS/MS) detection as described in Homedes et al. ([4]).

[3] = test system: dogs with OA; assay: Safety assessment in the field clinical study (hematology, biochemistry, urine, adverse events); type: in vivo, client-owned dogs with OA; details: 6 months weekly treatment
Protocol: To assess safety, blood samples for hematology and biochemistry, as well as urine samples, were repeated on days 44 and 189. The following hematological and biochemical parameters were determined: red blood cell (RBC) count, white blood cell (WBC) total and differential count, platelet (thrombocyte) count and estimate, hematocrit, hemoglobin, and reticulocytes. Amylase, albumin, alkaline phosphatase, alanine-aminotransferase (ALT), aspartate-aminotransferase (AST), calcium, cholesterol, creatinine, creatine kinase, globulin, glucose, γ-Glutamyltransferase (γ-GT), magnesium, phosphorus, potassium, sodium, total bilirubin, total protein, and urea.
Urine samples were analyzed for blood/erythrocytes/hemoglobin, glucose, ketone bodies, protein, leukocytes, nitrite, specific weight, pH value, bilirubin, and urobilinogen.
Safety was also assessed by recording any adverse events (AEs) that occurred during the study, regardless of their nature, severity, or whether they were product-related or not.

[4] = test system: canine osteoarthritis; parameters: method as in Salichs et al., Vet Rec. 2022; details: ref Salichs et al., Vet Rec. 2022, cited from earlier work; for Number of animals presenting AEs (%): Emesis or nausea: AEs classified A, B or O; for Emesis and nausea: Number of events: AEs related to the GI system
[5] = parameters: method as in PMID 34854245; details: popPK model, cited from earlier work
[6] = test system: Beagle dogs; parameters: method as in PMID 34082759; details: cited from earlier work
[7] = interindividual variability as % CV
[8] = parent, typical value at 9.9 kg

NS(=O)(=O)c1ccc(N2N=C(C(F)(F)F)CC2c2ccc(F)cc2F)cc1 (stereo not shown) [Enflicoxib]
mean terminal elimination half-life (t 1/2) ([1]; Beagle dogs, oral): 20 h | Effect of food on absorption [1]: food increases absorption | Mean plasma level ([2]; day 44 (2 days after 7th weekly administration), N=75): 0.4917 µg/mL and 0.492 µg/mL | Max plasma level ([2]; day 44, N=75): 1,846.5 ng/mL | Min plasma level ([2]; day 44, N=75): 5.0 ng/mL | Probability (%) concentration < 10 ng/mL ([2]; day 44, N=75): 13.3% | Probability (%) concentration < LOQ ([2]; day 44, N=75): 9.3% | Probability (%) concentration < 10 ng/mL ([2]; day 44, N=75, listed as enflicoxib): 13% | Mean plasma level ([2]; day 93 (premature study termination), N=2): 0.2968 µg/mL | Max plasma level ([2]; day 93, N=2): 356.0 ng/mL | Min plasma level ([2]; day 93, N=2): 237.7 ng/mL | Probability (%) concentration < 10 ng/mL ([2]; day 93, N=2): 0.0% | Probability (%) concentration < LOQ ([2]; day 93, N=2): 0.0% | Mean plasma level ([2]; day 189 (trough after 27th weekly administration), N=65): 0.2625 µg/mL | Mean plasma level ([2]; day 189 (trough after 27th weekly administration), N=65, listed as enflicoxib): 0.263 µg/mL | Max plasma level ([2]; day 189, N=65): 1,846.3 ng/mL | Min plasma level ([2]; day 189, N=65): 5.0 ng/mL | Probability (%) concentration < 10 ng/mL ([2]; day 189, N=65): 27.7% | Probability (%) concentration < LOQ ([2]; day 189, N=65): 27.7% | Probability (%) concentration < 10 ng/mL ([2]; day 189, N=65, listed as enflicoxib): 28% | Incidence and type of adverse events over time [3]: no tendency to increase over time | Hematological and biochemical parameters ([3]; days 44 and 189): generally within the reference ranges | Number of animals presenting AEs (%): Emesis or nausea ([4]; Enflicoxib 2 mg/kg group n=60): 3 (5.0) | Emesis and nausea: Number of events ([4]; Enflicoxib 2 mg/kg group n=60): 3 | Diarrhoea / pasty stools: Duration range ([4]; Enflicoxib 2 mg/kg group n=60): 2 to 8 days | Diarrhoea / pasty stools: Mean duration ([4]; Enflicoxib 2 mg/kg group n=60): 5.6 days | Diarrhoea / pasty stools: Number of events ([4]; Enflicoxib 2 mg/kg group n=60): 3 | Diarrhoea / pasty stools: Treatment needed ([4]; Enflicoxib 2 mg/kg group n=60): 1 | Emesis and nausea: Mean duration ([4]; Enflicoxib 2 mg/kg group n=60): 3 days | Emesis and nausea: Treatment needed ([4]; Enflicoxib 2 mg/kg group n=60): 0 | Number of animals presenting AEs (%): Abdominal pain ([4]; Enflicoxib 2 mg/kg group n=60): 0 | Number of animals presenting AEs (%): Acute renal failure ([4]; Enflicoxib 2 mg/kg group n=60): 0 | Number of animals presenting AEs (%): Apathy ([4]; Enflicoxib 2 mg/kg group n=60): 1 (1.7) | Number of animals presenting AEs (%): Constipation ([4]; Enflicoxib 2 mg/kg group n=60): 0 | Number of animals presenting AEs (%): Diarrhoea or pasty stools ([4]; Enflicoxib 2 mg/kg group n=60): 4 (6.7) | Number of animals presenting AEs (%): Increased salivation ([4]; Enflicoxib 2 mg/kg group n=60): 0 | Number of animals presenting AEs (%): Polydipsia ([4]; Enflicoxib 2 mg/kg group n=60): 0 | Number of animals presenting AEs (%): Total ([4]; Enflicoxib 2 mg/kg group n=60): 6 (10%) | Number of animals presenting AEs (%): Weight loss ([4]; Enflicoxib 2 mg/kg group n=60): 1 (1.7) | Emesis and nausea: Duration range ([4]; Enflicoxib 2 mg/kg group n=60, upper end one animal): 1 to 6 days | Number of animals presenting AEs (%): Emesis or nausea ([4]; Enflicoxib 4 mg/kg group n=61): 7 (11.5) | Emesis and nausea: Number of events ([4]; Enflicoxib 4 mg/kg group n=61): 9 | Diarrhoea / pasty stools: Duration range ([4]; Enflicoxib 4 mg/kg group n=61): 1 to 4 days | Diarrhoea / pasty stools: Mean duration ([4]; Enflicoxib 4 mg/kg group n=61): 3 days | Diarrhoea / pasty stools: Number of events ([4]; Enflicoxib 4 mg/kg group n=61): 7 | Diarrhoea / pasty stools: Treatment needed ([4]; Enflicoxib 4 mg/kg group n=61): 3 | Emesis and nausea: Duration range ([4]; Enflicoxib 4 mg/kg group n=61): 1 to 3 days | Emesis and nausea: Mean duration ([4]; Enflicoxib 4 mg/kg group n=61): 1.4 days | Emesis and nausea: Treatment needed ([4]; Enflicoxib 4 mg/kg group n=61): 2 | Number of animals presenting AEs (%): Abdominal pain ([4]; Enflicoxib 4 mg/kg group n=61): 0 | Number of animals presenting AEs (%): Acute renal failure ([4]; Enflicoxib 4 mg/kg group n=61): 0 | Number of animals presenting AEs (%): Apathy ([4]; Enflicoxib 4 mg/kg group n=61): 2 (3.3) | Number of animals presenting AEs (%): Constipation ([4]; Enflicoxib 4 mg/kg group n=61): 0 | Number of animals presenting AEs (%): Diarrhoea or pasty stools ([4]; Enflicoxib 4 mg/kg group n=61): 5 (8.2) | Number of animals presenting AEs (%): Increased salivation ([4]; Enflicoxib 4 mg/kg group n=61): 1 (1.6) | Number of animals presenting AEs (%): Polydipsia ([4]; Enflicoxib 4 mg/kg group n=61): 1 (1.6) | Number of animals presenting AEs (%): Total ([4]; Enflicoxib 4 mg/kg group n=61): 12 (19.7) | Number of animals presenting AEs (%): Weight loss ([4]; Enflicoxib 4 mg/kg group n=61): 0 | IIV of CL2/F (apparent clearance of irreversible biotransformation to pyrazol metabolite) [5, 7]: 49% | IIV of Lag Time (Tlag) [5, 7]: 68% | IIV of V/F (apparent volume of distribution in the central compartment) [5, 7]: 94% | IIV of absorption rate (ka) [5, 7]: 101% | Residual variability ([5]; log error model, % CV): 34% | Absorption rate (ka), estimate ([5]; parent): 0.220 hr – 1 | Lag Time (Tlag), estimate ([5]; parent): 0.249 h | CL1/F = θ5·(WGT/9.9)^0.75, θ5 estimate (apparent clearance to other elimination pathways) [5, 8]: 0.193 L/h | CL2/F = θ6·(WGT/9.9)^0.75, θ6 estimate (apparent clearance of irreversible biotransformation to pyrazol metabolite) [5, 8]: 0.520 L/h | V/F = θ4·(WGT/9.9)^1.0, θ4 estimate (apparent volume of distribution, central compartment) [5, 8]: 6.59 L | Tolerability in overdose study ([6]; 3 times the recommended dose (12 mg/kg) for 7 months): well-tolerated | Tolerability in overdose study ([6]; 5 times the recommended dose (20 mg/kg) for 3 months): well-tolerated
